Source: patent US12145913B2, “Inhibition of Olig2 activity” (Curtana Pharmaceuticals, Inc., priority 2016, dated 2024)

tested on: GBM8 human glioblastoma cells; experiment: GBM8 viability assay (Cell Titer Glo); assay type: cell-based; settings: 72 h, Table 1, 3 days incubation, luminescence
Method: Cell culture medium was prepared from a NSA proliferation kit (Neurocult) and NeuroCult supplements (Stemcell Tech Cat. #05751) and treated with 20 μL of 10 μg/mL rh EGF, 10 μL of 10 μg/mL rh bFGF and 10 μL of 0.2% Heparin. In this medium, human glioblastoma cells were cultured in ultra-low attachment tissue culture flasks until 1×10^6 cells ml was achieved (GBM4 and GBM8 are distinct neurosphere cell cultures derived from these human patient tissues). GBM4 and GBM8 cells were dissociated and 10 mL of media containing 4000 human glioblastoma cells per 90 μL were transferred to an ultra-low binding 96-well plate and incubated at 37° C. overnight. On the following day, 10 μL of a 1% DMSO solution of test compound in assay medium was added to wells containing the cell suspension and the mixture incubated at 37° C. for 3 days. At this time, the plate was removed from the incubator and allowed to reach room temperature. After about 30 minutes, 50 μL of Cell Titer Glo solution was added to each well and the plate shaken for 1 minute at low speed. After 10 minutes luminescence was recorded using a Tecan Safire2 reader.
Reduction in luminescence compared to DMSO only control wells was used to determine the percentage inhibition of cell growth. IC50s were calculated using the % inhibition of luminescence for serial dilutions of compounds fitted to a 4-parameter fit within the Prism (San Diego) curve fitting program. Tables 1 (compounds 3-188) and 2 (compounds 190-212) show the GBM4 IC50 and GBM8 IC50 for compounds described herein.

**Q.** Which IC50 does the source give for `Cc1cc(NCCCN(C)C)nc(NC(=O)Nc2ccc3ccncc3c2)n1` [Compound 114, 1-(4-((3-(dimethylamino)propyl)amino)-6-methylpyrimidin-2-yl)-3-(isoquinolin-7-yl)urea] here?
**A.** < 500 nM

**Q.** Which IC50 does the source give for `Cc1cc(NCCN(C)C)nc(NC(=O)Nc2ccc3ccncc3c2)n1` [Compound 115, 1-(4-((2-(dimethylamino)ethyl)amino)-6-methylpyrimidin-2-yl)-3-(isoquinolin-7-yl)urea] here?
**A.** 500 to 5000 nM

**Q.** How did the IC50 turn out when `Cc1cc(NCCN)nc(NC(=O)Nc2ccc3ccncc3c2)n1` [Compound 116, 1-(4-((2-aminoethyl)amino)-6-methylpyrimidin-2-yl)-3-(isoquinolin-7-yl)urea] was run?
**A.** 500 to 5000 nM

**Q.** For `Cc1cc(NCCCN)nc(NC(=O)Nc2ccc3ccncc3c2)n1` [Compound 117, 1-(4-((3-aminopropyl)amino)-6-methylpyrimidin-2-yl)-3-(isoquinolin-7-yl)urea], which IC50 is on record?
**A.** 500 to 5000 nM

**Q.** How did the IC50 turn out when `CC(=O)NCCCNc1cc(C)nc(NC(=O)Nc2ccc3ccncc3c2)n1` [Compound 118, N-(3-((2-(3-(isoquinolin-7-yl)ureido)-6-methylpyrimidin-4-yl)amino)propyl)acetamide] was run?
**A.** < 500 nM

**Q.** With `CC(=O)NCCNc1cc(C)nc(NC(=O)Nc2ccc3ccncc3c2)n1` [Compound 119, N-(2-((2-(3-(isoquinolin-7-yl)ureido)-6-methylpyrimidin-4-yl)amino)ethyl)acetamide] as the compound, how does the IC50 read?
**A.** 500 to 5000 nM

**Q.** For `Cc1cc(NCCNS(C)(=O)=O)nc(NC(=O)Nc2ccc3ccncc3c2)n1` [Compound 120, N-(2-((2-(3-(isoquinolin-7-yl)ureido)-6-methylpyrimidin-4-yl)amino)ethyl)methanesulfonamide], which IC50 is on record?
**A.** < 500 nM

**Q.** Which IC50 does the source give for `Cc1cc(NCCNS(C)(=O)=O)nc(NC(=O)Nc2ccc(Cl)c(Cl)c2)n1` [Compound 123, N-(2-((2-(3-(3,4-dichlorophenyl)ureido)-6-methylpyrimidin-4-yl)amino)ethyl)methanesulfonamide] here?
**A.** < 500 nM

**Q.** How did the IC50 turn out when `Cc1cc(NCCCN(C)C)nc(NC(=O)Nc2ccc(-c3ccccc3)cc2)n1` [Compound 125, 1-([1,1′-biphenyl]-4-yl)-3-(4-((3-(dimethylamino)propyl)amino)-6-methylpyrimidin-2-yl)urea] was run?
**A.** < 500 nM

**Q.** How did the IC50 turn out when `CCNc1cc(C)nc(NC(=O)Nc2ccc(-c3ccccc3)cc2)n1` [Compound 126, 1-([1,1′-biphenyl]-4-yl)-3-(4-(ethylamino)-6-methylpyrimidin-2-yl)urea] was run?
**A.** < 500 nM

**Q.** For `Cc1cc(NCCCN(C)C)nc(NC(=O)Nc2cccc(Oc3ccccc3)c2)n1` [Compound 128, 1-(4-((3-(dimethylamino)propyl)amino)-6-methylpyrimidin-2-yl)-3-(3-phenoxyphenyl)urea], which IC50 is on record?
**A.** 500 to 5000 nM

**Q.** For `Cc1cc(NCCCN(C)C)nc(NC(=O)Nc2cccc(-c3ccccc3)c2)n1` [Compound 131, 1-([1,1′-biphenyl]-3-yl)-3-(4-((3-(dimethylamino)propyl)amino)-6-methylpyrimidin-2-yl)urea], which IC50 is on record?
**A.** 500 to 5000 nM

**Q.** Which IC50 does the source give for `Cc1cc(NCCCN(C)C)nc(NC(=O)Nc2ccc(Oc3ccccc3)cc2)n1` [Compound 133, 1-(4-((3-(dimethylamino)propyl)amino)-6-methylpyrimidin-2-yl)-3-(4-phenoxyphenyl)urea] here?
**A.** < 500 nM

**Q.** How did the IC50 turn out when `CCNc1cc(C)nc(NC(=O)Nc2ccc(Oc3ccccc3)cc2)n1` [Compound 134, 1-(4-(ethylamino)-6-methylpyrimidin-2-yl)-3-(4-phenoxyphenyl)urea] was run?
**A.** < 500 nM

**Q.** For `Cc1cc(NCCCN(C)C)nc(NC(=O)Nc2ccc(OC(C)C)cc2)n1` [Compound 136, 1-(4-((3-(dimethylamino)propyl)amino)-6-methylpyrimidin-2-yl)-3-(4-isopropoxyphenyl)urea], which IC50 is on record?
**A.** < 500 nM

**Q.** With `Cc1cc(NCCN(C)C)nc(NC(=O)Nc2ccc(OC(C)C)cc2)n1` [Compound 137, 1-(4-((2-(dimethylamino)ethyl)amino)-6-methylpyrimidin-2-yl)-3-(4-isopropoxyphenyl)urea] as the compound, how does the IC50 read?
**A.** < 500 nM

**Q.** How did the IC50 turn out when `Cc1cc(NCCNS(C)(=O)=O)nc(NC(=O)Nc2ccc(OC(C)C)cc2)n1` [Compound 139, N-(2-((2-(3-(4-isopropoxyphenyl)ureido)-6-methylpyrimidin-4-yl)amino)ethyl)methanesulfonamide] was run?
**A.** < 500 nM

**Q.** How did the IC50 turn out when `CC(=O)NCCNc1cc(C)nc(NC(=O)Nc2ccc(OC(C)C)cc2)n1` [Compound 140, N-(2-((2-(3-(4-isopropoxyphenyl)ureido)-6-methylpyrimidin-4-yl)amino)ethyl)acetamide] was run?
**A.** < 500 nM

**Q.** For `CC(=O)NCCCNc1cc(C)nc(NC(=O)Nc2ccc(OC(C)C)cc2)n1` [Compound 142, N-(3-((2-(3-(4-isopropoxyphenyl)ureido)-6-methylpyrimidin-4-yl)amino)propyl)acetamide], which IC50 is on record?
**A.** < 500 nM

**Q.** `CNc1cc(C)nc(NC(=O)Nc2ccc(OC(F)(F)F)cc2)n1` [Compound 144, 1-(4-methyl-6-(methylamino)pyrimidin-2-yl)-3-(4-(trifluoromethoxy)phenyl)urea] was tested. Which IC50 did it give?
**A.** < 500 nM

**Q.** `Cc1cc(NCCO)nc(NC(=O)Nc2ccc(OC(F)(F)F)cc2)n1` [Compound 145, 1-(4-((2-hydroxyethyl)amino)-6-methylpyrimidin-2-yl)-3-(4-(trifluoromethoxy)phenyl)urea] was tested. Which IC50 did it give?
**A.** < 500 nM

**Q.** With `CONc1cc(C)nc(NC(=O)Nc2ccc(OC(F)(F)F)cc2)n1` [Compound 146, 1-(4-(methoxyamino)-6-methylpyrimidin-2-yl)-3-(4-(trifluoromethoxy)phenyl)urea] as the compound, how does the IC50 read?
**A.** 500 to 5000 nM

**Q.** How did the IC50 turn out when `Cc1cc(NO)nc(NC(=O)Nc2ccc(OC(F)(F)F)cc2)n1` [Compound 147, 1-(4-(hydroxyamino)-6-methylpyrimidin-2-yl)-3-(4-(trifluoromethoxy)phenyl)urea] was run?
**A.** < 500 nM

**Q.** Which IC50 does the source give for `Cc1cc(NCCCN(C)C)nc(NC(=O)Nc2ccc(OC(F)(F)F)c(Cl)c2)n1` [Compound 149, 1-(3-chloro-4-(trifluoromethoxy)phenyl)-3-(4-((3-(dimethylamino)propyl)amino)-6-methylpyrimidin-2-yl)urea] here?
**A.** < 500 nM

**Q.** For `Cc1cc(NCCN)nc(NC(=O)Nc2ccc(OC(F)(F)F)c(Cl)c2)n1` [Compound 150, 1-(4-((2-aminoethyl)amino)-6-methylpyrimidin-2-yl)-3-(3-chloro-4-(trifluoromethoxy)phenyl)urea], which IC50 is on record?
**A.** < 500 nM

**Q.** With `Cc1cc(NCCNS(C)(=O)=O)nc(NC(=O)Nc2ccc(OC(F)(F)F)c(Cl)c2)n1` [Compound 151, N-(2-((2-(3-(3-chloro-4-(trifluoromethoxy)phenyl)ureido)-6-methylpyrimidin-4-yl)amino)ethyl)methanesulfonamide] as the compound, how does the IC50 read?
**A.** < 500 nM

**Q.** `Cc1cc(NCCCN(C)C)nc(NC(=O)Nc2ccc(OC(F)(F)F)c(C)c2)n1` [Compound 153, 1-(4-((3-(dimethylamino)propyl)amino)-6-methylpyrimidin-2-yl)-3-(3-methyl-4-(trifluoromethoxy)phenyl)urea] was tested. Which IC50 did it give?
**A.** < 500 nM

**Q.** Which IC50 does the source give for `Cc1cc(NCCCN)nc(NC(=O)Nc2ccc(C(=O)c3ccccc3)cc2)n1` [Compound 155, 1-(4-((3-aminopropyl)amino)-6-methylpyrimidin-2-yl)-3-(4-benzoylphenyl)urea] here?
**A.** < 500 nM

**Q.** How did the IC50 turn out when `CN(C)CCCNc1ccnc(NC(=O)Nc2ccc(Cl)c(Cl)c2)n1` [Compound 157, 1-(3,4-dichlorophenyl)-3-(4-((3-(dimethylamino)propyl)amino)pyrimidin-2-yl)urea] was run?
**A.** 500 to 5000 nM

**Q.** With `O=C(Nc1ccc(Cl)c(Cl)c1)Nc1nccc(NO)n1` [Compound 158, 1-(3,4-dichlorophenyl)-3-(4-(hydroxyamino)pyrimidin-2-yl)urea] as the compound, how does the IC50 read?
**A.** 500 to 5000 nM

**Q.** With `CN(C)CCCNc1ccnc(NC(=O)Nc2ccc3ccccc3c2)n1` [Compound 160, 1-(4-((3-(dimethylamino)propyl)amino)pyrimidin-2-yl)-3-(naphthalen-2-yl)urea] as the compound, how does the IC50 read?
**A.** < 500 nM

**Q.** For `O=C(Nc1ccc2ccccc2c1)Nc1nccc(NO)n1` [Compound 161, 1-(4-(hydroxyamino)pyrimidin-2-yl)-3-(naphthalen-2-yl)urea], which IC50 is on record?
**A.** 500 to 5000 nM

**Q.** Which IC50 does the source give for `O=C(Nc1ccc(OC(F)(F)F)cc1)Nc1nccc(Cl)n1` [Compound 162, 1-(4-Chloropyrimidin-2-yl)-3-(4-(trifluoromethoxy)phenyl)urea] here?
**A.** < 500 nM

**Q.** For `CN(C)CCCNc1ccnc(NC(=O)Nc2ccc(OC(F)(F)F)cc2)n1` [Compound 163, 1-(4-((3-(dimethylamino)propyl)amino)pyrimidin-2-yl)-3-(4-(trifluoromethoxy)phenyl)urea], which IC50 is on record?
**A.** 500 to 5000 nM

**Q.** `CN(C)CCCNc1nc(NC(=O)Nc2ccc(Cl)c(Cl)c2)ncc1F` [Compound 168, 1-(3,4-dichlorophenyl)-3-(4-((3-(dimethylamino)propyl)amino)-5-fluoropyrimidin-2-yl)urea] was tested. Which IC50 did it give?
**A.** 500 to 5000 nM

**Q.** Which IC50 does the source give for `CNCCCNc1cc(C(C)C)nc(NC(=O)Nc2ccc(Cl)c(Cl)c2)n1` [Compound 184, 1-(3,4-dichlorophenyl)-3-(4-isopropyl-6-((3-(methyl-amino)propyl)amino)pyrimidin-2-yl)urea] here?
**A.** 500 to 5000 nM

**Q.** Which IC50 does the source give for `CC(C)c1cc(NO)nc(NC(=O)Nc2ccc(Cl)c(Cl)c2)n1` [Compound 185, 1-(3,4-dichlorophenyl)-3-(4-(hydroxyamino)-6-isopropyl-pyrimidin-2-yl)urea] here?
**A.** 500 to 5000 nM

**Q.** How did the IC50 turn out when `CC(C)c1cc(NO)nc(NC(=O)Nc2ccc3ccccc3c2)n1` [Compound 187, 1-(4-(hydroxyamino)-6-isopropylpyrimidin-2-yl)-3-(naphthalen-2-yl)urea] was run?
**A.** 500 to 5000 nM
